Series [1] can be described thus: Solubility of detergent (Table 1). In kind it is physicochemical.
A short description of series [2]: Critical micelle concentration (CMC) by fluorescent dye diphenylhexatriene (DPH). In kind it is physicochemical. The note with it: DPH fluorescence. As to the method: A method of measuring the CMC is not particularly limited, but a method widely known in the art may be used, and for example, the CMC may be measured by a fluorescent staining method using diphenylhexatriene (DPH).
(§1) Specifically, the critical micelle concentrations (CMCs) were measured using a fluorescent dye, diphenylhexatriene (DPH), and the hydrodynamic radii (Rh) of micelles formed by each preparation (1.0 wt %) were determined by a dynamic light scattering (DLS) experiment. The measured results are shown in Table 1 compared to DDM which is an existing amphiphilic molecule (detergent).

Series [3] can be described thus: Hydrodynamic radius (Rh) of micelles by dynamic light scattering (DLS). In kind it is physicochemical. The note with it: 1.0 wt % detergent. As to the method:
A method of measuring the radius of micelle is not particularly limited, but a method widely known in the art may be used, and for example, the radius of micelle may be measured using a dynamic light scattering (DLS) experiment.
as §1

Series [4] relates to leucine transporter (LeuT). The experiment in a line: LeuT structural stability: [3H]-Leu binding by scintillation proximity assay (SPA). Particulars: CMC+0.04 wt % or CMC+0.2 wt %, room temperature, 13-day incubation, [3H]-Leu SPA. In kind it is biochemical, Aquifex aeolicus. Here is the method: Experiments were performed to measure the structural stability of the LeuT protein by TSMs, TTGs and TEMs. Each amphiphilic compound was used at a concentration of (a) CMC+0.04 wt % or (b) CMC+0.2 wt %, and the substrate binding properties of LeuT were measured using [^3H]-Leu via scintillation proximity assay (SPA). The measurement was performed at regular intervals over the course of a 13-day and 12-day incubation at room temperature, respectively.
Specifically, a wild-type leucine transporter (LeuT) derived from the thermophilic bacterium Aquifex aeolicus was purified by a previously described method (Nature 1998, 392, 353-358 by G. Deckert et al.). LeuT was expressed in E. coli C41 (DE3) transformed with pET16b encoding the C-terminal 8×His-tagged transporter (expression plasmids were provided from Dr E. Gouaux, Vollum Institute, Portland, Oregon, USA). In summary, after a bacterial membrane was isolated and solubilized in 1 wt % DDM, the protein was bound to Ni^2+-NTA resin (Life Technologies, Denmark), and eluted in 20 mM Tris-HCl (pH 8.0), 1 mM NaCl, 199 mM KCl, 0.05% (w/v) DDM and 300 mM imidazole. Then, the purified LeuT (0.5 mg/ml) was diluted with buffers supplemented with TSMs, TTGs, TEMs or DDM at a final concentration of CMC+0.04% (w/v) or CMC+0.2% (w/v) except for DDM and imidazole in the equivalent buffer described above. Protein samples were incubated at room temperature for 13 days, centrifuged at a specified time, and protein properties were confirmed by measuring [^3H]-Leucine binding ability using SPA. SPA was performed with 5 μL of each protein sample in a buffer containing 450 mM NaCl and each of TSMs and TEMs (or DDM). The SPA reaction was performed in the presence of 20 nM [^3H]-Leucine and 1.25 mg/ml copper chelate (His-Tag) YSi beads (PerkinElmer, Denmark). Overall [^3H]-Leucine coupling to each sample was measured using a MicroBeta liquid scintillation counter (Perkin Elmer).
Background: SPA uses beads or plates that emit light when radiolabelled molecules are held near them.

The text below walks through data of patent US12473324B2, “Triazine-based amphiphilic compound and use thereof” (INDUSTRY-UNIVERSITY COOPERATION FOUNDATION HANYANG …, priority 2019, dated 2025).

Molecules are shown by their SMILES.

Take `CCCCCCCCCCCOc1nc(OCCCCCCCCCCC)nc(N(CCO[C@@H]2O[C@H](CO)[C@@H](O[C@H]3O[C@H](CO)[C@@H](O)[C@H](O)[C@H]3O)[C@H](O)[C@H]2O)CCO[C@@H]2O[C@H](CO)[C@@H](O[C@H]3O[C@H](CO)[C@@H](O)[C@H](O)[C@H]3O)[C@H](O)[C@H]2O)n1` [TEM-E11]: the solubility in series [1] was ~1%. The “CMC” value in series [2] is given as ~0.001 mM. Also, the “Rh (nm)” value in series [3] is on record as 25.2 ± 1.2 nm.
Consider `CCCCCCCCCCSc1nc(SCCCCCCCCCC)nc(N(CCO[C@@H]2O[C@H](CO)[C@@H](O[C@H]3O[C@H](CO)[C@@H](O)[C@H](O)[C@H]3O)[C@H](O)[C@H]2O)CCO[C@@H]2O[C@H](CO)[C@@H](O[C@H]3O[C@H](CO)[C@@H](O)[C@H](O)[C@H]3O)[C@H](O)[C@H]2O)n1` [TEM-T10], for which the solubility in series [1] is given as ~5%. The “CMC” value in series [2] is ~0.0025 mM. The “LeuT substrate binding properties over incubation” value in series [4] is reported as “best substrate binding activity”. The “Rh (nm)” value in series [3] is on record as 4.3 ± 0.0 nm.
Take `CCCCCCCCCCCSc1nc(SCCCCCCCCCCC)nc(N(CCO[C@@H]2O[C@H](CO)[C@@H](O[C@H]3O[C@H](CO)[C@@H](O)[C@H](O)[C@H]3O)[C@H](O)[C@H]2O)CCO[C@@H]2O[C@H](CO)[C@@H](O[C@H]3O[C@H](CO)[C@@H](O)[C@H](O)[C@H]3O)[C@H](O)[C@H]2O)n1` [TEM-T11]: the solubility in series [1] is recorded as ~1%. Besides, the “CMC” value in series [2] is listed as ~0.001 mM. The “Rh (nm)” value in series [3] is given as 31.8 ± 0.3 nm.
For `CCCCCCCOc1nc(NC(CO[C@@H]2O[C@H](CO)[C@@H](O[C@H]3O[C@H](CO)[C@@H](O)[C@H](O)[C@H]3O)[C@H](O)[C@H]2O)CO[C@@H]2O[C@H](CO)[C@@H](O[C@H]3O[C@H](CO)[C@@H](O)[C@H](O)[C@H]3O)[C@H](O)[C@H]2O)nc(OCCCCCCC)n1` [TSM-E7], the solubility in series [1] is ~10%. In addition, in series [2], the “CMC” value is recorded as ~0.04 mM. For the same molecule, in series [3], the “Rh (nm)” value is 3.4 ± 0.1 nm.
With `CCCCCCCCOc1nc(NC(CO[C@@H]2O[C@H](CO)[C@@H](O[C@H]3O[C@H](CO)[C@@H](O)[C@H](O)[C@H]3O)[C@H](O)[C@H]2O)CO[C@@H]2O[C@H](CO)[C@@H](O[C@H]3O[C@H](CO)[C@@H](O)[C@H](O)[C@H]3O)[C@H](O)[C@H]2O)nc(OCCCCCCCC)n1` [TSM-E8], the solubility in series [1] is ~10%. Also, in series [2], the “CMC” value was ~0.02 mM. The “LeuT substrate binding properties over incubation” value in series [4] was “best substrate binding activity”. In addition, in series [3], the “Rh (nm)” value turned out to be 3.6 ± 0.1 nm.
For `CCCCCCCCCOc1nc(NC(CO[C@@H]2O[C@H](CO)[C@@H](O[C@H]3O[C@H](CO)[C@@H](O)[C@H](O)[C@H]3O)[C@H](O)[C@H]2O)CO[C@@H]2O[C@H](CO)[C@@H](O[C@H]3O[C@H](CO)[C@@H](O)[C@H](O)[C@H]3O)[C@H](O)[C@H]2O)nc(OCCCCCCCCC)n1` [TSM-E9], the solubility in series [1] was ~10%. Besides, the “CMC” value in series [2] is reported as ~0.01 mM. Further, in series [3], the “Rh (nm)” value was found to be 4.0 ± 0.1 nm.
For `CCCCCCCCCCSc1nc(NC(CO[C@@H]2O[C@H](CO)[C@@H](O[C@H]3O[C@H](CO)[C@@H](O)[C@H](O)[C@H]3O)[C@H](O)[C@H]2O)CO[C@@H]2O[C@H](CO)[C@@H](O[C@H]3O[C@H](CO)[C@@H](O)[C@H](O)[C@H]3O)[C@H](O)[C@H]2O)nc(SCCCCCCCCCC)n1` [TSM-T10], in series [1], the solubility is ~5%. The “CMC” value in series [2] is ~0.003 mM. In addition, the “LeuT substrate binding properties over incubation” value in series [4] is reported as “best substrate binding activity”. The “Rh (nm)” value in series [3] is reported as 38.2 ± 1.8 nm.
With `CCCCCCCCCCCSc1nc(NC(CO[C@@H]2O[C@H](CO)[C@@H](O[C@H]3O[C@H](CO)[C@@H](O)[C@H](O)[C@H]3O)[C@H](O)[C@H]2O)CO[C@@H]2O[C@H](CO)[C@@H](O[C@H]3O[C@H](CO)[C@@H](O)[C@H](O)[C@H]3O)[C@H](O)[C@H]2O)nc(SCCCCCCCCCCC)n1` [TSM-T11], the solubility in series [1] is ~1%. The “CMC” value in series [2] is reported as ~0.001 mM. For the same molecule, the “Rh (nm)” value in series [3] was 94.8 ± 45 nm.
The like results for `CCCCCCCCNc1nc(NCCCCCCCC)nc(NC(CO[C@@H]2O[C@H](CO)[C@@H](O)[C@H](O)[C@H]2O)(CO[C@@H]2O[C@H](CO)[C@@H](O)[C@H](O)[C@H]2O)CO[C@@H]2O[C@H](CO)[C@@H](O)[C@H](O)[C@H]2O)n1` [TTG-A8] were, in that order, ~10%, ~0.6 mM and 2.1 ± 0.56 nm.
With `CCCCCCCCCNc1nc(NCCCCCCCCC)nc(NC(CO[C@@H]2O[C@H](CO)[C@@H](O)[C@H](O)[C@H]2O)(CO[C@@H]2O[C@H](CO)[C@@H](O)[C@H](O)[C@H]2O)CO[C@@H]2O[C@H](CO)[C@@H](O)[C@H](O)[C@H]2O)n1` [TTG-A9], in series [1], the solubility is listed as ~10%. In addition, in series [2], the “CMC” value is reported as ~0.5 mM. Moreover, the “Rh (nm)” value in series [3] amounted to 2.2 ± 0.20 nm.
For the molecule `CCCCCCCCCCNc1nc(NCCCCCCCCCC)nc(NC(CO[C@@H]2O[C@H](CO)[C@@H](O)[C@H](O)[C@H]2O)(CO[C@@H]2O[C@H](CO)[C@@H](O)[C@H](O)[C@H]2O)CO[C@@H]2O[C@H](CO)[C@@H](O)[C@H](O)[C@H]2O)n1` [TTG-A10], the solubility in series [1] is recorded as ~10%. Moreover, the “CMC” value in series [2] is ~0.3 mM. In addition, in series [3], the “Rh (nm)” value came out at 2.3 ± 0.14 nm.
For the molecule `CCCCCCCCCCCNc1nc(NCCCCCCCCCCC)nc(NC(CO[C@@H]2O[C@H](CO)[C@@H](O)[C@H](O)[C@H]2O)(CO[C@@H]2O[C@H](CO)[C@@H](O)[C@H](O)[C@H]2O)CO[C@@H]2O[C@H](CO)[C@@H](O)[C@H](O)[C@H]2O)n1` [TTG-A11], the solubility in series [1] is on record as ~10%. Also, in series [2], the “CMC” value was ~0.2 mM. Besides, the “Rh (nm)” value in series [3] is on record as 2.4 ± 0.11 nm.
As for `CCCCCCCCCCCCNc1nc(NCCCCCCCCCCCC)nc(NC(CO[C@@H]2O[C@H](CO)[C@@H](O)[C@H](O)[C@H]2O)(CO[C@@H]2O[C@H](CO)[C@@H](O)[C@H](O)[C@H]2O)CO[C@@H]2O[C@H](CO)[C@@H](O)[C@H](O)[C@H]2O)n1` [TTG-A12], in series [1], the solubility is recorded as ~5%. For the same molecule, the “CMC” value in series [2] was ~0.04 mM. In addition, the “Rh (nm)” value in series [3] came to 2.5 ± 0.07 nm.
With `CCCCCCCCCCCCCCNc1nc(NCCCCCCCCCCCCCC)nc(NC(CO[C@@H]2O[C@H](CO)[C@@H](O)[C@H](O)[C@H]2O)(CO[C@@H]2O[C@H](CO)[C@@H](O)[C@H](O)[C@H]2O)CO[C@@H]2O[C@H](CO)[C@@H](O)[C@H](O)[C@H]2O)n1` [TTG-A14], in series [1], the solubility is ~1%. In addition, the “CMC” value in series [2] is ~0.008 mM. For the same molecule, in series [3], the “Rh (nm)” value amounted to 3.2 ± 0.05 nm.
`CCCCCCCSc1nc(NC(CO[C@@H]2O[C@H](CO)[C@@H](O)[C@H](O)[C@H]2O)(CO[C@@H]2O[C@H](CO)[C@@H](O)[C@H](O)[C@H]2O)CO[C@@H]2O[C@H](CO)[C@@H](O)[C@H](O)[C@H]2O)nc(SCCCCCCC)n1` [TTG-T7]: the solubility in series [1] is given as ~10%. In addition, the “CMC” value in series [2] is reported as ~0.02 mM. In addition, in series [3], the “Rh (nm)” value came to 2.8 ± 0.16 nm.
The like results for `CCCCCCCCSc1nc(NC(CO[C@@H]2O[C@H](CO)[C@@H](O)[C@H](O)[C@H]2O)(CO[C@@H]2O[C@H](CO)[C@@H](O)[C@H](O)[C@H]2O)CO[C@@H]2O[C@H](CO)[C@@H](O)[C@H](O)[C@H]2O)nc(SCCCCCCCC)n1` [TTG-T8] were, in that order, ~10%, ~0.015 mM and 2.9 ± 0.09 nm.
